Data taken from the supplement of paper PMC10307832.

Legend:
Assay in all cases: relative viability (nuclei count vs DMSO), 5 days (fraction); higher = more cells survive
GSK-J4 + Palbociclib = compound: CCOC(=O)CCNc1cc(N2CCc3ccccc3CC2)nc(-c2ccccn2)n1 [GSK-J4] + CC(=O)c1c(C)c2cnc(Nc3ccc(N4CCNCC4)cn3)nc2n(C2CCCC2)c1=O [Palbociclib] (partner 0.5 µM)
Method in brief: (§1)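 Medians of duplicate plates are given as relative viability. That measure is the nuclei count in treated wells divided by the count in vehicle wells. Counts were taken on 4× images of lung cancer cell lines in 1536-well plates, 5 days after pin-tool dosing the day after seeding with one drug alone or a fixed anchor-drug dose plus five library-drug doses (not always all listed) in √10 steps.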

AZ3146 + Pictilisib = compound: CN1CCC(CC1)OC2=CC(=C(C=C2)NC3=NC=C4C(=N3)N(C(=O)N4C)C5CCCC5)OC [AZ3146] + CS(=O)(=O)N1CCN(Cc2cc3nc(-c4cccc5[nH]ncc45)nc(N4CCOCC4)c3s2)CC1 [Pictilisib] (partner 1 µM)
Method in brief: as §1

GSK-J4 + Alpelisib = compound: CCOC(=O)CCNc1cc(N2CCc3ccccc3CC2)nc(-c2ccccn2)n1 [GSK-J4] + Cc1nc(NC(=O)N2CCC[C@H]2C(N)=O)sc1-c1ccnc(C(C)(C)C(F)(F)F)c1 [Alpelisib] (partner 2 µM)
Method in brief: as §1

AZ3146 + Pemetrexed = compound: CN1CCC(CC1)OC2=CC(=C(C=C2)NC3=NC=C4C(=N3)N(C(=O)N4C)C5CCCC5)OC [AZ3146] + Nc1nc2[nH]cc(CCc3ccc(C(=O)N[C@@H](CCC(=O)O)C(=O)O)cc3)c2c(=O)[nH]1 [Pemetrexed] (partner 0.2 µM)
Method in brief: as §1

Cell Line | relative viability (GSK-J4 + Palbociclib; first compound 0.5 µM) | relative viability (GSK-J4 + Palbociclib; first compound 1.581 µM) | relative viability (GSK-J4 + Palbociclib; first compound 5 µM) | relative viability (GSK-J4 + Palbociclib; first compound 15.81 µM) | relative viability (GSK-J4 + Palbociclib; first compound 50 µM) | relative viability (AZ3146 + Pictilisib; first compound 0.08 µM) | relative viability (AZ3146 + Pictilisib; first compound 0.253 µM) | relative viability (AZ3146 + Pictilisib; first compound 0.8 µM) | relative viability (AZ3146 + Pictilisib; first compound 2.53 µM) | relative viability (AZ3146 + Pictilisib; first compound 8 µM) | relative viability (GSK-J4 + Alpelisib; first compound 0.5 µM) | relative viability (GSK-J4 + Alpelisib; first compound 1.581 µM) | relative viability (GSK-J4 + Alpelisib; first compound 5 µM) | relative viability (GSK-J4 + Alpelisib; first compound 15.81 µM) | relative viability (GSK-J4 + Alpelisib; first compound 50 µM) | relative viability (AZ3146 + Pemetrexed; first compound 0.08 µM) | relative viability (AZ3146 + Pemetrexed; first compound 0.253 µM) | relative viability (AZ3146 + Pemetrexed; first compound 0.8 µM) | relative viability (AZ3146 + Pemetrexed; first compound 2.53 µM) | relative viability (AZ3146 + Pemetrexed; first compound 8 µM)
HCC-827 | 0.539 | 0.46 | 0.543 | 0.431 | 0.411 | 0.965 | 0.971 | 0.987 | 1.2 | 0.928 | 0.981 | 1 | 1.02 | 0.915 | 0.939 | 0.291 | 0.244 | 0.252 | 0.269 | 0.248
HOP-62 | 0.469 | 0.455 | 0.44 | 0.465 | 0.473 | 0.561 | 0.719 | 0.627 | 0.895 | 0.548 | 0.956 | 1.01 | 1.12 | 0.912 | 0.859 | 0.242 | 0.328 | 0.339 | 0.305 | 0.365
NCI-H1437 | 0.293 | 0.278 | 0.332 | 0.38 | 0.205 | 0.432 | 0.376 | 0.45 | 0.393 | 0.461 | 0.904 | 0.979 | 0.908 | 0.873 | 0.428 | 0.283 | 0.327 | 0.3 | 0.346 | 0.294
PC-14 | 0.471 | 0.624 | 0.454 | 0.518 | 0.544 | 0.68 | 0.763 | 0.725 | 0.71 | 0.518 | 0.916 | 0.909 | 0.946 | 0.873 | 0.913 | 0.138 | 0.131 | 0.142 | 0.119 | 0.0971
NCI-H2228 | 0.672 | 0.765 | 0.817 | 0.784 | 0.722 | 0.412 | 0.306 | 0.349 | 0.282 | 0.314 | 0.702 | 0.653 | 0.933 | 0.566 | 0.575 | 0.297 | 0.325 | 0.333 | 0.298 | 0.37
CAL-12T | 0.46 | 0.342 | 0.442 | 0.482 | 0.493 | 0.334 | – | 0.475 | 0.554 | 0.481 | 1.12 | 1.11 | 1.43 | 1.29 | 1.29 | 1.1 | 1.15 | 1.29 | 1.33 | 1.13
LOU-NH91 | 0.51 | 0.468 | 0.493 | 0.507 | 0.46 | 0.475 | 0.542 | 0.459 | 0.494 | 0.474 | 0.743 | 0.689 | 0.649 | 0.688 | 0.672 | 0.327 | 0.448 | 0.362 | 0.368 | 0.411
EMC-BAC-2 | 0.505 | 0.474 | – | 0.465 | 0.471 | 0.524 | 0.56 | 0.564 | 0.607 | 0.597 | 0.755 | 0.717 | 0.785 | 0.716 | 0.691 | 0.379 | 0.442 | 0.433 | 0.466 | 0.411
NCI-H1355 | 0.372 | 0.375 | 0.415 | 0.35 | 0.356 | 0.334 | 0.452 | 0.525 | 0.467 | 0.512 | 0.761 | 0.741 | 0.857 | 0.762 | 0.757 | 1.02 | 1.02 | 1.03 | 1.12 | 1.13
NCI-H1666 | 0.685 | 0.561 | 0.59 | 0.627 | 0.708 | 0.307 | 0.507 | 0.485 | 0.582 | 0.648 | 0.881 | – | 1.08 | 0.985 | 0.508 | 0.771 | 0.825 | 0.83 | 0.901 | 0.788
NCI-H2126 | 0.374 | 0.397 | 0.356 | 0.333 | 0.358 | 0.41 | 0.483 | 0.465 | 0.517 | 0.496 | 0.763 | 0.706 | 0.787 | 0.741 | 0.684 | 0.613 | 0.662 | 0.618 | 0.677 | 0.696
NCI-H1793 | 0.298 | 0.264 | 0.28 | 0.204 | 0.162 | 0.298 | 0.376 | 0.278 | 0.469 | 0.261 | 0.79 | 0.737 | 0.715 | 0.602 | 0.275 | 1.02 | 0.792 | 0.565 | 1.16 | 0.51
LCLC-97TM1 | 0.211 | 0.216 | 0.225 | 0.211 | 0.272 | – | – | 0.18 | 0.227 | 0.181 | – | – | 0.271 | 0.24 | 0.164 | 0.142 | 0.184 | 0.233 | 0.192 | 0.163
COR-L23 | 0.274 | 0.233 | – | 0.251 | 0.258 | 0.643 | 0.922 | 0.824 | 0.77 | 0.667 | 0.677 | 0.709 | – | 0.68 | 0.781 | 0.195 | 0.196 | 0.215 | 0.208 | 0.195
HARA | 0.242 | 0.247 | 0.23 | 0.234 | 0.3 | 0.264 | 0.537 | 0.387 | 0.594 | 0.244 | 0.815 | 0.441 | – | 0.785 | 0.646 | 0.22 | 0.257 | 0.245 | 0.217 | 0.231
NCI-H2023 | 0.317 | 0.371 | 0.385 | 0.41 | 0.435 | 0.241 | 0.285 | 0.19 | 0.265 | 0.202 | 0.604 | 0.471 | 0.75 | 0.582 | 0.583 | 0.207 | 0.238 | 0.226 | 0.216 | 0.129
NCI-H1792 | 0.622 | – | 0.773 | 0.569 | 0.668 | 0.211 | 0.238 | 0.32 | 0.339 | 0.285 | 0.708 | 0.664 | 0.734 | 0.575 | 0.837 | 0.606 | 0.871 | 0.68 | 1.04 | 0.701
